According to patent publication US20190307843A1, “SINGLE DOSE METHODS FOR PREVENTING AND TREATING FUNGAL INFECTIONS” (Cidara Therapeutics, Inc., priority 2016, published 2019):
Several values for one entry are separate records, joined by “and”; a condition that tells them apart may be missing. Equal values may be shown once. Starred links: 1 amine or outer side, 2 acyl side, 3 side chain; linkers in the order of their positions; H or OH if unused. Positions of bridges follow the written chain, without caps; N, C: chain ends. Non-standard residues stand in square brackets, D forms with d. Residues, ends and D or L forms follow the SMILES beside them. *: point of attachment. hTyr(3S-OH,4S-OH,3'-OSO3H) = N[C@H](C(=O)O)[C@H](O)[C@@H](O)c1ccc(O)c(OS(=O)(=O)O)c1; Orn(4R-OH,5R-OH) = O=C([C@H](C[C@@H](O)[C@@H](O)N[*:3])N[*:1])[*:2]; Pro(3S-OH,4S-Me) = C[C@H]1CN[C@H](C(=O)O)[C@H]1O; X1 = CCCCCOc1ccc(-c2cc(-c3ccc(C(=O)*)cc3)no2)cc1; Gln(3R-OH) = NC(=O)C[C@@H](O)[C@H](N)C(=O)O; Hyp = O=C(O)[C@@H]1C[C@@H](O)CN1

Legend:
A. fumigatus AF293 = test: Murine model of pulmonary aspergillosis (Example 19), survival
[1] = tested on: A. fumigatus strain AF293; test: Murine model of pulmonary aspergillosis (Example 13), survival
Candida albicans SC5314 = settings: 24 hr
[2] = tested on: A. fumigatus strain AF293; test: Murine model of pulmonary aspergillosis (Example 13), terminal lung burden; format: in vivo, Aspergillus fumigatus
Method: A secondary endpoint for the study was terminal lung tissue burden. Immediately following confirmation of death, carcasses were frozen at −20° C. prior to tissue dissection and processing. The frozen carcasses were thawed at room temperature and the lungs removed and placed into pre-weighed bead-beating tubes containing 2 mL of PBS and subjected to mechanical disruption. Organ homogenates were diluted further in PBS and quantitatively cultured for A. fumigatus onto SABC and incubated at 30° C. for 24-48 hours. In addition, a 300 μL aliquot of the undiluted lung tissue homogenate was stored at −80° C. for possible optional assessment of burden by qPCR.

[3] = tested on: C. albicans SC-5314 biofilms; test: Adhesion phase biofilms (prevention), XTT metabolic activity and CSLM; format: cell-based, Candida albicans
[4] = format: in vivo, rat; settings: rat, in vivo
Method: The rats were monitored at a frequency appropriate for their clinical condition. Rat weights were recorded at least once daily to ensure animals remained within ethical limits.

[5] = tested on: C. albicans SC-5314 biofilms; test: Mature phase biofilms (treatment), XTT metabolic activity and CSLM; format: cell-based, Candida albicans
C. auris = test: Murine model of disseminated candidiasis, C. auris infection, kidney CFU and survival; format: in vivo, Candida auris
[6] = Micafungin 5 mg/kg IP once, Day 1 pre-infection
[7] = fluconazole 1 and 4 μg/ml, 24 h

## CCCCCOc1ccc(-c2cc(-c3ccc(C(=O)N[C@H]4C[C@@H](O)[C@@H](O)NC(=O)[C@@H]5[C@@H](O)[C@@H](C)CN5C(=O)[C@H]([C@H](O)CC(N)=O)NC(=O)[C@H]([C@H](O)[C@@H](O)c5ccc(O)c(OS(=O)(=O)O)c5)NC(=O)[C@@H]5C[C@@H](O)CN5C(=O)[C@H]([C@@H](C)O)NC4=O)cc3)no2)cc1 [Micafungin, micafungin] (X1-[Orn(4R-OH,5R-OH)]T[Hyp][hTyr(3S-OH,4S-OH,3'-OSO3H)][Gln(3R-OH)][Pro(3S-OH,4S-Me)]; lactam 1-C)
A. fumigatus AF293; Micafungin 5 mg/kg IP once
  survival time post infection, range: 71 to 162 h
A. fumigatus AF293; [6]
  Mean Survival: 92 h and 92.0 h
  Median Survival: 80 h and 80.0 h
A. fumigatus AF293; micafungin 5 mg/kg once one day pre-infection
  survival: did not show any improvement in survival
[1]; Micafungin 2 mg/kg IP Day 0
  Mean Survival: 75.3 h
  Median Survival: 73.3 h
[1]; Micafungin 2 mg/kg IP Day −1
  Mean Survival: 64.7 h
  Median Survival: 64.7 h
Candida albicans SC5314; micafungin IP 10 mg/kg
  CFU clearance: complete clearance was only observed with the 10 mg/kg dose
Candida albicans SC5314; micafungin IP 1, 3, 10 mg/kg
  CFU reduction: good dose response in CFU reduction
[2]; Micafungin 2 mg/kg IP Day 0
  Group Geometric mean (lung burden): 1.08 × 10^4 CFU/g
  Log10 Group Geometric mean (lung burden): 4.03 CFU/g
  Log10 reduction from vehicle control: −0.26 CFU/g
[2]; Micafungin 2 mg/kg IP Day −1
  Group Geometric mean (lung burden): 4.34 x 10^4 CFU/g
  Log10 Group Geometric mean (lung burden): 4.64 CFU/g
  Log10 reduction from vehicle control: −0.86 CFU/g

## OC(Cn1cncn1)(Cn1cncn1)c1ccc(F)cc1F [fluconazole]
[3]; fluconazole
  thickness of biofilms: no effect on biofilm thickness
[3]; [7]
  biofilm formation by metabolic activity (XTT): did not inhibit biofilm formation
[4]
  tolerability: well tolerated with no adverse events observed
[5]; fluconazole
  thickness of biofilms: no effect
[5]; [7]
  effect on mature biofilms: did not affect Candida biofilms
C. auris
  percent survival at the end of the study: 0%
